Source: the NIST ThermoML archive (doi:10.1021/je050389b)

Assay: xn = mol fraction of the nth substance listed
Conditions: 100.5 kPa, Liquid

CC(=O)OCCC(C)C [3-methylbutyl ethanoate] + CCO
Conditions | mass density, 288.15 K [kg/m3] | mass density, 298.15 K [kg/m3] | mass density, 308.15 K [kg/m3] | mass density, 318.15 K [kg/m3] | viscosity, 288.15 K [mPa·s] | viscosity, 298.15 K [mPa·s] | viscosity, 308.15 K [mPa·s] | viscosity, 318.15 K [mPa·s]
x1 = 0.05 | 803.41 | 794.64 | 785.74 | 776.69 | 1.22 | 1.011 | 0.847 | 0.716
x1 = 0.1 | 811.89 | 802.92 | 793.84 | 784.6 | 1.133 | 0.946 | 0.799 | 0.68
x1 = 0.15 | 819.25 | 810.13 | 800.9 | 791.5 | 1.072 | 0.902 | 0.762 | 0.651
x1 = 0.2 | 825.81 | 816.58 | 807.21 | 797.69 | 1.031 | 0.866 | 0.735 | 0.63
x1 = 0.25 | 831.66 | 822.31 | 812.85 | 803.22 | 0.996 | 0.841 | 0.716 | 0.615
x1 = 0.3 | 836.85 | 827.42 | 817.86 | 808.15 | 0.968 | 0.821 | 0.701 | 0.605
x1 = 0.35 | 841.58 | 832.08 | 822.44 | 812.65 | 0.948 | 0.805 | 0.689 | 0.596
x1 = 0.4 | 845.81 | 836.24 | 826.53 | 816.69 | 0.934 | 0.793 | 0.68 | 0.59
x1 = 0.45 | 849.7 | 840.07 | 830.32 | 820.42 | 0.924 | 0.786 | 0.675 | 0.586
x1 = 0.5 | 853.26 | 843.59 | 833.79 | 823.86 | 0.916 | 0.779 | 0.671 | 0.583
x1 = 0.55 | 856.53 | 846.82 | 836.99 | 827.03 | 0.91 | 0.776 | 0.668 | 0.582
x1 = 0.6 | 859.57 | 849.83 | 839.97 | 829.99 | 0.907 | 0.773 | 0.667 | 0.582
x1 = 0.65 | 862.36 | 852.58 | 842.71 | 832.72 | 0.908 | 0.773 | 0.667 | 0.584
x1 = 0.7 | 865 | 855.21 | 845.33 | 835.33 | 0.911 | 0.775 | 0.67 | 0.588
x1 = 0.75 | 867.44 | 857.64 | 847.75 | 837.75 | 0.912 | 0.78 | 0.675 | 0.594
x1 = 0.8 | 869.73 | 859.93 | 850.04 | 840.05 | 0.916 | 0.782 | 0.68 | 0.601
x1 = 0.85 | 871.89 | 862.08 | 852.2 | 842.22 | 0.926 | 0.791 | 0.688 | 0.609
x1 = 0.9 | 873.95 | 864.14 | 854.28 | 844.34 | 0.937 | 0.799 | 0.697 | 0.618
x1 = 0.95 | 875.87 | 866.09 | 856.25 | 846.32 | 0.939 | 0.804 | 0.703 | 0.625
x1 = 1 | 877.72 | 867.91 | 858.07 | 848.17 | 0.94 | 0.804 | 0.704 | 0.627
